pIC50: −log10 of the molar value.

The target in the assay is WT HIV-1 protease (Human immunodeficiency virus type 1 group M subtype B (isolate HXB2) (HIV-1), UniProt P04585). Kind of assay: Assay for inhibition of microbial expressed HIV protease (Procedure A, peptide substrate, HPLC fluorescence detection). Format: biochemical. The following applies: WT HIV-1 protease 10 pM, substrate 400 micromolar, pH 5.5, 30 min preincubation, 1 hour at 30° C.; read-out: Enzyme inhibition IC50. The method in brief: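 E. coli-expressed enzyme preincubated 30 min at room temperature with compound in 50 mM sodium acetate pH 5.5, 100 mM NaCl, 0.1% BSA. Reaction ran 1 h at 30° C with 400 micromolar Val-Ser-Gln-Asn-(betanaphthyl)Ala-Pro-Ile-Val substrate and 10 picomolar protease. After phosphoric acid quench, product was measured by C18 HPLC with fluorescence (ex 270/em 330 nm).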
For `CC(C)CN(C(CO)c1ccc(CNC(=O)C(NC(=O)c2ccccc2)C(c2ccccc2)c2ccccc2)s1)S(=O)(=O)c1ccc2ncsc2c1` (stereo not drawn) [Example 128, N-[1-benzhydryl-2-[[5-[1-(1,3-benzothiazol-6-ylsulfonyl(isobutyl)amino)-2-hydroxy-ethyl]-2-thienyl]methylamino]-2-oxo-ethyl]benzamide], the pIC50 was 7.28.

With `COC(=O)N[C@H](C(=O)NCc1ccc(C(CO)N(CCC(C)C)S(=O)(=O)c2ccc(CO)cc2)s1)C(c1ccccc1)c1ccccc1` (stereo partly drawn) [Example 5], the pIC50 is 9.27. The value for `COC(=O)N[C@H](C(=O)NCc1ccc([C@H](CO)N(Cc2cn[nH]c2)S(=O)(=O)c2ccc3scnc3c2)s1)C(c1ccccc1)c1ccccc1` [Example 33] was 7.02; that for `COC(=O)N[C@H](C(=O)N[C@H](c1ccc([C@@H](CO)N(CCC(C)(C)C)S(=O)(=O)c2ccc3ncsc3c2)s1)C(F)(F)F)C(c1ccccc1)c1ccccc1` [Example 100, N-[(1S)-1-(5-{(1R)-1-[(1,3-benzothiazol-6-ylsulfonyl)(3,3-dimethylbutyl)amino]-2-hydroxyethyl}thiophen-2-yl)-2,2,2-trifluoroethyl]-Nα-(methoxycarbonyl)-β-phenyl-L-phenylalaninamide] was 9.05; that for `COC(=O)N[C@H](C(=O)N[C@@H](C)c1ccc([C@@H](CO)N(CC(C)C)S(=O)(=O)c2ccc(N)cc2)s1)C(c1ccccc1)c1ccccc1` [Example 76, N-[(1S)-1-{5-[(1R)-1-{[(4-aminophenyl)sulfonyl](2-methylpropyl)amino}-2-hydroxyethyl]thiophen-2-yl}ethyl]-Nα-(methoxycarbonyl)-β-phenyl-L-phenylalaninamide] was 7.93. Regarding `COC(=O)N[C@H](C(=O)NCc1ccc([C@@H](CO)N(CC2CC(F)(F)C2)S(=O)(=O)c2ccc3c(c2)COCC3)s1)C(c1ccccc1)c1ccccc1` [Example 17], the pIC50 is 8.62.

Turning to `COC(=O)N[C@H](C(=O)NCc1ccc(C(CO)N(Cc2cc3cccnc3[nH]2)S(=O)(=O)c2ccc3scnc3c2)s1)C(c1ccccc1)c1ccccc1` (stereo partly drawn) [Example 34], the pIC50 is 7.46. Under `COC(=O)N[C@H](C(=O)N[C@H](c1ccc([C@@H](CO)N(CCC(C)(C)C)S(=O)(=O)c2ccc3ncccc3c2)s1)C(F)(F)F)C(c1ccccc1)c1ccccc1` [Example 73, Methyl [(2S)-1-{[(1S)-1-(5-{(1R)-1-[(3,3-dimethylbutyl)(quinolin-6-ylsulfonyl)amino]-2-hydroxyethyl}thiophen-2-yl)-2,2,2-trifluoroethyl]amino}-1-oxo-3,3-diphenylpropan-2-yl]carbamate] stands 8.69; under `COC(=O)Nc1ccc(S(=O)(=O)N(CCC(C)(C)C)[C@H](CO)c2ccc([C@@H](NC(=O)[C@@H](NC(=O)OC)C(c3ccccc3)c3ccccc3)C(F)(F)F)s2)cc1` [Example 70, N-[(1S)-1-(5-{1-[(3,3-dimethylbutyl)({4-[(methoxycarbonyl)amino]phenyl}sulfonyl)amino]-2-hydroxyethyl}thiophen-2-yl)-2,2,2-trifluoroethyl]-Nα-(methoxycarbonyl)-β-phenyl-L-phenylalaninamide], 8.50. On to `COC(=O)N[C@H](C(=O)N[C@H](c1ccc([C@@H](CO)N(CCC(C)(C)C)S(=O)(=O)c2ccc3nc[nH]c3c2)s1)C(F)(F)F)C(c1ccccc1)c1ccccc1` [Example 74, N-[(1S)-1-(5-{(1R)-1-[(1H-benzimidazol-6-ylsulfonyl)(3,3-dimethylbutyl)amino]-2-hydroxyethyl}thiophen-2-yl)-2,2,2-trifluoroethyl]-Nα-(methoxycarbonyl)-β-phenyl-L-phenylalaninamide], for which the negative-log IC50 (pIC50) was 9.35. The value for `COC(=O)N[C@H](C(=O)NCc1ccc([C@@H](CO)N(Cc2ccnc(OC)c2)S(=O)(=O)c2ccc3scnc3c2)s1)C(c1ccccc1)c1ccccc1` [Example 28] was 8.84; that for `COC(=O)N[C@H](C(=O)N[C@H](c1ccc([C@@H](CO)N(CCC(C)(C)C)S(=O)(=O)c2ccn3ncnc3c2)s1)C(F)(F)F)C(c1ccccc1)c1ccccc1` [Example 120, N-[(1S)-1-(5-{(1R)-1-[(3,3-dimethylbutyl)([1,2,4]triazolo[1,5-a]pyridin-7-ylsulfonyl)amino]-2-hydroxyethyl}thiophen-2-yl)-2,2,2-trifluoroethyl]-Nalpha-(methoxycarbonyl)-beta-phenyl-L-phenylalaninamide] was 8.52. Under `COC(=O)N[C@H](C(=O)NCc1ccc([C@H](CO)N(Cc2ccnc(OC)c2)S(=O)(=O)c2ccc3scnc3c2)s1)C(c1ccccc1)c1ccccc1` [Example 29] stands 6.97.

`COC(=O)N[C@H](C(=O)N[C@H](c1ccc([C@@H](CO)N(CCC(C)(C)C)S(=O)(=O)c2cn3cc(Cl)nc3cn2)s1)C(F)(F)F)C(c1ccccc1)c1ccccc1` [Example 119, N-[(1S)-1-{5-[(1R)-1-{[(2-chloroimidazo[1,2-a]pyrazin-6-yl)sulfonyl](3,3-dimethylbutyl)amino}-2-hydroxyethyl]thiophen-2-yl}-2,2,2-trifluoroethyl]-Nα-(methoxycarbonyl)-β-phenyl-L-phenylalaninamide]: the negative-log IC50 (pIC50) was 7.86. Under `COC(=O)N[C@H](C(=O)N[C@H](c1ccc([C@@H](CO)N(CCC(C)(C)C)S(=O)(=O)c2ccc(CO)c(C(F)(F)F)c2)s1)C(F)(F)F)C(c1ccccc1)c1ccccc1` [Example 56, N-[(1S)-1-(5-{(1R)-1-[(3,3-dimethylbutyl){[4-(hydroxymethyl)-3-(trifluoromethyl)phenyl]sulfonyl}amino]-2-hydroxyethyl}thiophen-2-yl)-2,2,2-trifluoroethyl]-Nα-(methoxycarbonyl)-β-phenyl-L-phenylalaninamide] stands 7.23. As to `COC(=O)N[C@H](C(=O)NCc1ccc(C(CO)N(CCC(C)C)S(=O)(=O)c2ccccc2)s1)C(c1ccccc1)c1ccccc1` (stereo partly drawn) [Example 4], the pIC50 is 8.06. The value for `COC(=O)N[C@H](C(=O)NCc1ccc([C@@H](CO)N(CC(C)C)S(=O)(=O)c2ccc3scnc3c2)s1)C(c1ccccc1)c1ccccc1` [Example 22] was 8.21; that for `COC(=O)N[C@H](C(=O)NCc1ccc(C(CO)N(Cc2cnon2)S(=O)(=O)c2ccc(N)cc2)s1)C(c1ccccc1)c1ccccc1` (stereo partly drawn) [Example 20] was 8.16. For `COC(=O)N[C@H](C(=O)NCc1ccc(C(CO)N(Cc2cc3ccccc3[nH]2)S(=O)(=O)c2ccc3scnc3c2)s1)C(c1ccccc1)c1ccccc1` (stereo partly drawn) [Example 24], the negative-log IC50 (pIC50) is 7.87.

Take `COC(=O)N[C@H](C(=O)N[C@H](c1ccc([C@@H](CO)N(CCC(C)(C)C)S(=O)(=O)c2ccc3[nH]ccc3c2)s1)C(F)(F)F)C(c1ccccc1)c1ccccc1` [Example 103, N-[(1S)-1-(5-{(1R)-1-[(3,3-dimethylbutyl)(1H-indol-5-ylsulfonyl)amino]-2-hydroxyethyl}thiophen-2-yl)-2,2,2-trifluoroethyl]-Nα-(methoxycarbonyl)-β-phenyl-L-phenylalaninamide]: the pIC50 is 8.21. As to `COC(=O)N[C@H](C(=O)NCc1ccc([C@@H](CO)N(CC(C)C)S(=O)(=O)c2ccc3ncsc3c2)s1)C(c1ccccc1)c1ccccc1` [Example 123, N-[(5-{(1R)-1-[(1,3-benzothiazol-6-ylsulfonyl)(2-methylpropyl)amino]-2-hydroxyethyl}thiophen-2-yl)methyl]-Nα-(methoxycarbonyl).-β-phenyl-L-phenylalaninamide], the pIC50 is 8.20. The value for `COC(=O)N[C@H](C(=O)N[C@H](c1ccc([C@@H](CO)N(CCCC(F)(F)F)S(=O)(=O)c2ccc3ncsc3c2)s1)C(F)(F)F)C(c1ccccc1)c1ccccc1` [Example 105, N-[(1S)-1-(5-[(1R)-1-[(1,3-benzothiazol-6-ylsulfonyl)(4,4,4-trifluorobutyl)amino]-2-hydroxyethyl}thiophen-2-yl)-2,2,2-trifluoroethyl]-Nα-(methoxycarbonyl)-β-phenyl-L-phenylalaninamide] was 8.75; that for `COC(=O)N[C@H](C(=O)N[C@H](c1ccc([C@@H](CO)N(CCC(C)(C)C)S(=O)(=O)c2ccc(-c3ccn(C)n3)cc2)s1)C(F)(F)F)C(c1ccccc1)c1ccccc1` [Example 92] was 7.18; that for `COC(=O)N[C@H](C(=O)N[C@H](c1ccc([C@@H](CO)N(CCC(C)(C)C)S(=O)(=O)c2ccc(CO)cc2)s1)C(F)(F)F)C(c1ccccc1)c1ccccc1` [Example 53, N-[(1S)-1-(5-{(1R)-1-[(3,3-dimethylbutyl){[4-(hydroxymethyl)phenyl]sulfonyl}amino]-2-hydroxyethyl}thiophen-2-yl)-2,2,2-trifluoroethyl]-Nα-(methoxycarbonyl)-β-phenyl-L-phenylalaninamide] was 9.81. The value for `CCCCN([C@H](CO)c1ccc([C@@H](NC(=O)[C@@H](NC(=O)OC)C(c2ccccc2)c2ccccc2)C(F)(F)F)s1)S(=O)(=O)c1ccc(N)cc1` [Example 88, N-[(1S)-1-{5-[(1R)-1-{[(4-aminophenyl)sulfonyl](butyl)amino}-2-hydroxyethyl]thiophen-2-yl}-2,2,2-trifluoroethyl]-Nα-(methoxycarbonyl)-β-phenyl-L-phenylalaninamide] was 9.48; that for `COC(=O)N[C@H](C(=O)NCc1ccc([C@@H](CO)N(CC2CC(F)(F)C2)S(=O)(=O)c2ccc3cc[nH]c(=O)c3c2)s1)C(c1ccccc1)c1ccccc1` [Example 16] was 9.36. Turning to `COC(=O)N[C@H](C(=O)N[C@@H](c1ccc([C@@H](CO)N(CC(C)C)S(=O)(=O)c2ccc(N)cc2)s1)C(F)(F)F)C(c1ccccc1)c1ccccc1` [Example 61, N-[(1R)-1-{5-[(1R)-1-{[(4-aminophenyl)sulfonyl](2-methylpropyl)amino}-2-hydroxyethyl]thiophen-2-yl}-2,2,2-trifluoroethyl]-Nα-(methoxycarbonyl)-β-phenyl-L-phenylalaninamide], the pIC50 was 7.64.
